From publication PMC8909834, “An Orally Bioavailable and Highly Efficacious Inhibitor of CDK9/FLT3 for the Treatment of Acute Myeloid Leukemia” (Cancers, 2022)

Assays:
Assay in all cases: Kinase Hotspot radiolabel assay
Assay type in all cases: biochemical
Details in all cases: read-out: % Residual Activity
LIMK1 = biological target: T1, LIMK1 (Homo sapiens, UniProt P53667)
T1 construct: purchased Reaction Biology Corporation (Kinase HotSpot)
Procedure, shortened: (§1)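 1 µM cpd; 369-kinase radiolabel Hotspot panel; Ki run for hits >90% inhibition.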

LIMK2 = biological target: T2, LIMK2 (Homo sapiens, UniProt P53671)
T2 construct: purchased Reaction Biology Corporation (Kinase HotSpot)
Procedure, shortened: as §1

SGK1 = biological target: T3, SGK1 (Homo sapiens, UniProt O00141)
T3 construct: purchased Reaction Biology Corporation (Kinase HotSpot)
Procedure, shortened: as §1

SNRK = biological target: T4, SNRK (Homo sapiens, UniProt Q9NRH2)
T4 construct: purchased Reaction Biology Corporation (Kinase HotSpot)
Procedure, shortened: as §1

HPK1/MAP4K1 = biological target: T5, HPK1/MAP4K1 (Homo sapiens, UniProt Q92918)
T5 construct: purchased Reaction Biology Corporation (Kinase HotSpot)
Procedure, shortened: as §1

ULK2 = biological target: T6, ULK2 (Homo sapiens, UniProt Q8IYT8)
T6 construct: purchased Reaction Biology Corporation (Kinase HotSpot)
Procedure, shortened: as §1

MARK2/PAR-1Ba = biological target: T7, MARK2/PAR-1Ba (Homo sapiens, UniProt Q7KZI7)
T7 construct: purchased Reaction Biology Corporation (Kinase HotSpot)
Procedure, shortened: as §1

LYN = biological target: T8, LYN (Homo sapiens, UniProt P07948)
T8 construct: purchased Reaction Biology Corporation (Kinase HotSpot)
Procedure, shortened: as §1

DMPK2 = biological target: T9, DMPK2 (Homo sapiens, UniProt Q6DT37)
T9 construct: purchased Reaction Biology Corporation (Kinase HotSpot)
Procedure, shortened: as §1

c-Kit = biological target: T10, c-Kit (Homo sapiens, UniProt P10721)
T10 construct: purchased Reaction Biology Corporation (Kinase HotSpot)
T10 sequence (P10721 26-976): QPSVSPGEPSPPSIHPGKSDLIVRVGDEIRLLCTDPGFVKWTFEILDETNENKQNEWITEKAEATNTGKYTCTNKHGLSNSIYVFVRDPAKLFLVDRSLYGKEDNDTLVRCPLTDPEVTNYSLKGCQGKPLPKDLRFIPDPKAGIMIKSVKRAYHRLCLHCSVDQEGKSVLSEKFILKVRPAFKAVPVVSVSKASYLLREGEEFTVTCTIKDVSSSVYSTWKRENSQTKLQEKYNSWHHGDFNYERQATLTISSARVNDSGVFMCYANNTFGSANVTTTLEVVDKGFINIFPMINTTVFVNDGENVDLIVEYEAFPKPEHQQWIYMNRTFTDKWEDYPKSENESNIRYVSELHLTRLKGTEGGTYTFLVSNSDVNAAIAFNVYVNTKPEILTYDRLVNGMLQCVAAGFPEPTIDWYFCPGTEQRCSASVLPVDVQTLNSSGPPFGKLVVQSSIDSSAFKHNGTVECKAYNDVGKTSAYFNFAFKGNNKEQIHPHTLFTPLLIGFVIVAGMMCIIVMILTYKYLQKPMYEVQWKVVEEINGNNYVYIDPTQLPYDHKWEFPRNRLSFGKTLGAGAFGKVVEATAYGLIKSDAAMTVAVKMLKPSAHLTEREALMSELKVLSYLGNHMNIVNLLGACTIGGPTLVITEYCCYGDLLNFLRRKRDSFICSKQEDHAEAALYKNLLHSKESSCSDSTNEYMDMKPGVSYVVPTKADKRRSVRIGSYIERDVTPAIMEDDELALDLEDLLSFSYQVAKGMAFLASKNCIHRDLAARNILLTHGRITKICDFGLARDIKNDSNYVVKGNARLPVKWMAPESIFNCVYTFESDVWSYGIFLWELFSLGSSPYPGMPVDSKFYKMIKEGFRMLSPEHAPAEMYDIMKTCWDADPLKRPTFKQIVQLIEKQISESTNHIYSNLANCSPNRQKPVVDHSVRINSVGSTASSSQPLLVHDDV
Procedure, shortened: as §1

OSR1/OXSR1 = biological target: T11, OSR1/OXSR1 (Homo sapiens, UniProt O95747)
T11 construct: purchased Reaction Biology Corporation (Kinase HotSpot)
Procedure, shortened: as §1

CDK6/cyclin D3 = biological target: T12, CDK6/cyclin D3 (Homo sapiens, UniProt Q00534)
T12 construct: purchased Reaction Biology Corporation (Kinase HotSpot)
Procedure, shortened: as §1

FYN = biological target: T13, FYN (Homo sapiens, UniProt P06241)
T13 construct: purchased Reaction Biology Corporation (Kinase HotSpot)
T13 sequence (P06241 whole entry): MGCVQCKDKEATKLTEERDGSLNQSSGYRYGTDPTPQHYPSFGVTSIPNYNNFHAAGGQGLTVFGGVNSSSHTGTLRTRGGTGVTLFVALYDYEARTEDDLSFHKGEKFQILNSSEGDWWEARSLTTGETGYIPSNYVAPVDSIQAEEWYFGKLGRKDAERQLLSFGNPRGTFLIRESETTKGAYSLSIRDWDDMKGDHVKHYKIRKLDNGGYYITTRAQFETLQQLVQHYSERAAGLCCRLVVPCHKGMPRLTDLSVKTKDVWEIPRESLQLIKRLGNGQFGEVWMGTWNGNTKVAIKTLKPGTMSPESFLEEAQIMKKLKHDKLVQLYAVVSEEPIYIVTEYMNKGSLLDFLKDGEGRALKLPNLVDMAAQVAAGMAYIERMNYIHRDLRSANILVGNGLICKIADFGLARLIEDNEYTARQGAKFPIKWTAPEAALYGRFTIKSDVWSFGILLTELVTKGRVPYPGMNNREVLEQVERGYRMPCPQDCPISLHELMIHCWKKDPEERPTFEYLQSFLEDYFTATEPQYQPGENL
Procedure, shortened: as §1

TEC = biological target: T14, TEC (Homo sapiens, UniProt P42680)
T14 construct: purchased Reaction Biology Corporation (Kinase HotSpot)
Procedure, shortened: as §1

CK1a1L = biological target: T15, CK1a1L (Homo sapiens, UniProt Q8N752)
T15 construct: purchased Reaction Biology Corporation (Kinase HotSpot)
Procedure, shortened: as §1

NEK6 = biological target: T16, NEK6 (Homo sapiens, UniProt Q9HC98)
T16 construct: purchased Reaction Biology Corporation (Kinase HotSpot)
Procedure, shortened: as §1

ABL2/ARG = biological target: T17, ABL2/ARG (Homo sapiens, UniProt P42684)
T17 construct: purchased Reaction Biology Corporation (Kinase HotSpot)
T17 sequence (P42684 whole entry): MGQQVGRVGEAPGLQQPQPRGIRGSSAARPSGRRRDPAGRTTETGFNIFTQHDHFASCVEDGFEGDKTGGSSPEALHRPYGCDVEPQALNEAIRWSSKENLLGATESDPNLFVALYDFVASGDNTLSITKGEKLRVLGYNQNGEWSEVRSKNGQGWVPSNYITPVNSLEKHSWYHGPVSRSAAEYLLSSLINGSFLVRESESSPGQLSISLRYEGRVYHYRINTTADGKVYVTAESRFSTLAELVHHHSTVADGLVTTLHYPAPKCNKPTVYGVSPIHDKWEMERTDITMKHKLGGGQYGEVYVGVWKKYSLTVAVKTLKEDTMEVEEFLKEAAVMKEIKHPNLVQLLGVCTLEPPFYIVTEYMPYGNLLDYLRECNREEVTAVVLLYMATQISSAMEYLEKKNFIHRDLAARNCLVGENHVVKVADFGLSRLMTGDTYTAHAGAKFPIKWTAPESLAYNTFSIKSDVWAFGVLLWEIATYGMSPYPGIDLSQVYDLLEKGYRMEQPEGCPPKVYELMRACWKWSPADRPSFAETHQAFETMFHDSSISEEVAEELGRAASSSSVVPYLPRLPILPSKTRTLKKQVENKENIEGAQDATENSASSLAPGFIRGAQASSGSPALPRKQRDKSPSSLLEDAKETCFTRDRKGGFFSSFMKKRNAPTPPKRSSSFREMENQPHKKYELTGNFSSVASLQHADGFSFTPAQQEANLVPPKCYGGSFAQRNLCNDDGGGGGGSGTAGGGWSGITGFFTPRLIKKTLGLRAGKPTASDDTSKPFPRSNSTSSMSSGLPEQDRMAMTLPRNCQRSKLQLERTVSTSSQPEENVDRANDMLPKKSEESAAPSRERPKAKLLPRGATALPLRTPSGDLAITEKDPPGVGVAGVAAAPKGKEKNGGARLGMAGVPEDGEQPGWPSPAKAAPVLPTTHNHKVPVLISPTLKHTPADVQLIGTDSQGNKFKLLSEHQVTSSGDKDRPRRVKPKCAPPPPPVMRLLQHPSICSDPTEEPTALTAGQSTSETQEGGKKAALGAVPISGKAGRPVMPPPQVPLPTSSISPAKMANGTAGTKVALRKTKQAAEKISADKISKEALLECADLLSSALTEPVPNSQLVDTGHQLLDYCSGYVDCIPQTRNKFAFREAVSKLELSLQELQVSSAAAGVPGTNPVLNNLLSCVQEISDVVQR
Procedure, shortened: as §1

ROCK2 = biological target: T18, ROCK2 (Homo sapiens, UniProt O75116)
T18 construct: purchased Reaction Biology Corporation (Kinase HotSpot)
Procedure, shortened: as §1

FGR = biological target: T19, FGR (Homo sapiens, UniProt P09769)
T19 construct: purchased Reaction Biology Corporation (Kinase HotSpot)
Procedure, shortened: as §1

PRKX = biological target: T20, PRKX (Homo sapiens, UniProt P51817)
T20 construct: purchased Reaction Biology Corporation (Kinase HotSpot)
Procedure, shortened: as §1

CLK4 = biological target: T21, CLK4 (Homo sapiens, UniProt Q9HAZ1)
T21 construct: purchased Reaction Biology Corporation (Kinase HotSpot)
Procedure, shortened: as §1

PAK1 = biological target: T22, PAK1 (Homo sapiens, UniProt Q13153)
T22 construct: purchased Reaction Biology Corporation (Kinase HotSpot)
Procedure, shortened: as §1

LRRK2 = biological target: T23, LRRK2 (Homo sapiens, UniProt Q5S007)
T23 construct: purchased Reaction Biology Corporation (Kinase HotSpot)
Procedure, shortened: as §1

DAPK2 = biological target: T24, DAPK2 (Homo sapiens, UniProt Q9UIK4)
T24 construct: purchased Reaction Biology Corporation (Kinase HotSpot)
T24 sequence (Q9UIK4 whole entry): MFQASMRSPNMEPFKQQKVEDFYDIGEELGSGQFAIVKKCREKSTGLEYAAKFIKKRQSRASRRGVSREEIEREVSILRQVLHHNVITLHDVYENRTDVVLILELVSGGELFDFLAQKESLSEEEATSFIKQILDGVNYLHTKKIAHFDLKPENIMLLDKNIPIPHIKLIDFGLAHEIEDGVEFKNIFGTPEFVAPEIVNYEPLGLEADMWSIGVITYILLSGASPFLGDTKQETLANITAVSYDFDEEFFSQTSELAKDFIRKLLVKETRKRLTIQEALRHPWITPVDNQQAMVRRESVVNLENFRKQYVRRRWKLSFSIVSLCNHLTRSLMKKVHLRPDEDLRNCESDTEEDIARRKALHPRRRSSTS
Procedure, shortened: as §1

PKCnu/PRKD3 = biological target: T25, PKCnu/PRKD3 (Homo sapiens, UniProt O94806)
T25 construct: purchased Reaction Biology Corporation (Kinase HotSpot)
Procedure, shortened: as §1

HIPK1 = biological target: T26, HIPK1 (Homo sapiens, UniProt Q86Z02)
T26 construct: purchased Reaction Biology Corporation (Kinase HotSpot)
Procedure, shortened: as §1

MST3/STK24 = biological target: T27, MST3/STK24 (Homo sapiens, UniProt Q9Y6E0)
T27 construct: purchased Reaction Biology Corporation (Kinase HotSpot)
Procedure, shortened: as §1

EPHA4 = biological target: T28, EPHA4 (Homo sapiens, UniProt P54764)
T28 construct: purchased Reaction Biology Corporation (Kinase HotSpot)
Procedure, shortened: as §1

TIE2/TEK = biological target: T29, TIE2/TEK (Homo sapiens, UniProt Q02763)
T29 construct: purchased Reaction Biology Corporation (Kinase HotSpot)
T29 sequence (Q02763 23-1124): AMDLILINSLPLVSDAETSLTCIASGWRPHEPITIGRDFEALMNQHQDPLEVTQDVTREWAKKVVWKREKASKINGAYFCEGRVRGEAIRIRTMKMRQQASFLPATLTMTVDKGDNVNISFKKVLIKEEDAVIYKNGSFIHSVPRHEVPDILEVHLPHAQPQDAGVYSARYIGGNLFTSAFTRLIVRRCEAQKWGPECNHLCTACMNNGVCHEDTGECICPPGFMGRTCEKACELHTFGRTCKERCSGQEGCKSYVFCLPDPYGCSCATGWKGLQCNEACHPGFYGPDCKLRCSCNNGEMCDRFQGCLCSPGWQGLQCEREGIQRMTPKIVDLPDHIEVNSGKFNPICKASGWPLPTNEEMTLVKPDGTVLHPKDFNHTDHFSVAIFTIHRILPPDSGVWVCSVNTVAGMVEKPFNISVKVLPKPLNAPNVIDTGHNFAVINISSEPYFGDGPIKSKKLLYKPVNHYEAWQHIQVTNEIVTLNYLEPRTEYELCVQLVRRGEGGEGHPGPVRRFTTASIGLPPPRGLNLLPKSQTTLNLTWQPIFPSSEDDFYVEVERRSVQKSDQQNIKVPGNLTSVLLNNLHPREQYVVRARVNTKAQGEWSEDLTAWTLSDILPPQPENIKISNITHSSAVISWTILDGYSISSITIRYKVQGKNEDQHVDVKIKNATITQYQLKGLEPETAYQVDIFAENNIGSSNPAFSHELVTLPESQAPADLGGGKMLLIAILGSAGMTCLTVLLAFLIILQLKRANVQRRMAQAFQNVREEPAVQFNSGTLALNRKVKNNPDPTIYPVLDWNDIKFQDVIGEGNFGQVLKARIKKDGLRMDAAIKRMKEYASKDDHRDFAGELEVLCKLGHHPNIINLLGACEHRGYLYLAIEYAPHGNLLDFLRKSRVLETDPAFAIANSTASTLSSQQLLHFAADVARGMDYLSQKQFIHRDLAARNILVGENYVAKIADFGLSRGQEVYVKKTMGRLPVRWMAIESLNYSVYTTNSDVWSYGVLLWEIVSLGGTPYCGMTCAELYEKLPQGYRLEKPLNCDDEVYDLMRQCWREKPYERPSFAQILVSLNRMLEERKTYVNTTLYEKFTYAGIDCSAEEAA
Procedure, shortened: as §1

MELK = biological target: T30, MELK (Homo sapiens, UniProt Q14680)
T30 construct: purchased Reaction Biology Corporation (Kinase HotSpot)
Procedure, shortened: as §1

T1 sequence (P53667 whole entry): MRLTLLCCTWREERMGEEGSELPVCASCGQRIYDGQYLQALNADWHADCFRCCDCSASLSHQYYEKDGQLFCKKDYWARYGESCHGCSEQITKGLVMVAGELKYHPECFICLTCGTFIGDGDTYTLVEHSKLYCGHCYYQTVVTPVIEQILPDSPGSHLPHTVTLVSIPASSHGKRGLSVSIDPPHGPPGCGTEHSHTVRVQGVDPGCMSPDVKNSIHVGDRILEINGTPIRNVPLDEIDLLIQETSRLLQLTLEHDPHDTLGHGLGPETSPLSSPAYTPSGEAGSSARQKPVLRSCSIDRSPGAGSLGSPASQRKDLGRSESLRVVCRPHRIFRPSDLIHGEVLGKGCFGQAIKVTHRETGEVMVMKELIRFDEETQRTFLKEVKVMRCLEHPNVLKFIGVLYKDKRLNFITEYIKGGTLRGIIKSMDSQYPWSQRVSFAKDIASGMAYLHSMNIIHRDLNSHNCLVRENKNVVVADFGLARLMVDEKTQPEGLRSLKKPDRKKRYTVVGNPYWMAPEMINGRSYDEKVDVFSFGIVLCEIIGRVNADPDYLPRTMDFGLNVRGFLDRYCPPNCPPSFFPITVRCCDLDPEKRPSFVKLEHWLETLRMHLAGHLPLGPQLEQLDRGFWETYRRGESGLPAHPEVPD

Cc1cnc(N[C@H]2CC[C@H](N)CC2)nc1-c1cnc2ccc(-c3ccccc3)cn12 [CDDD11-8]
remaining activity at 1 µM (LIMK1): 12.9%
remaining activity at 1 µM (LIMK2): 93.8%
remaining activity at 1 µM (SGK1): 95.4%
remaining activity at 1 µM (SNRK): 100%
remaining activity at 1 µM (HPK1/MAP4K1): 35.4%
remaining activity at 1 µM (ULK2): 113%
remaining activity at 1 µM (MARK2/PAR-1Ba): 23.1%
remaining activity at 1 µM (LYN): 65.5%
remaining activity at 1 µM (DMPK2): 26.3%
remaining activity at 1 µM (c-Kit): 97.5%
remaining activity at 1 µM (OSR1/OXSR1): 101%
remaining activity at 1 µM (CDK6/cyclin D3): 96.6%
remaining activity at 1 µM (FYN): 63.2%
remaining activity at 1 µM (TEC): 101%
remaining activity at 1 µM (CK1a1L): 90%
remaining activity at 1 µM (NEK6): 96.2%
remaining activity at 1 µM (ABL2/ARG): 67.5%
remaining activity at 1 µM (ROCK2): 88.9%
remaining activity at 1 µM (FGR): 73.4%
remaining activity at 1 µM (PRKX): 77.4%
remaining activity at 1 µM (CLK4): 26.1%
remaining activity at 1 µM (PAK1): 106%
remaining activity at 1 µM (LRRK2): 70.6%
remaining activity at 1 µM (DAPK2): 81.2%
remaining activity at 1 µM (PKCnu/PRKD3): 35.1%
remaining activity at 1 µM (HIPK1): 105%
remaining activity at 1 µM (MST3/STK24): 103%
remaining activity at 1 µM (EPHA4): 101%
remaining activity at 1 µM (TIE2/TEK): 61.2%
remaining activity at 1 µM (MELK): 66.9%
